According to patent publication US20240269139A1, “COMPOUNDS FOR TARGETED PROTEIN DEGRADATION OF KINASES” (DANA-FARBER CANCER INSTITUTE, INC., priority 2020, published 2024):
Like-named read-outs stand apart in the source and are kept apart here.

Experiments:
Format in all cases: cell-based
[1] = system: protein kinases (human kinome); conditions: for logFC MAPK8 (P45983-4): direction down; for logFC MAPK8: MAPK8 P45983-4
[2] = biological target: T1, protein kinases (human kinome) (Homo sapiens, UniProt O95835); conditions: LATS1 O95835; experiment wp071
T1 sequence (O95835 1-1130): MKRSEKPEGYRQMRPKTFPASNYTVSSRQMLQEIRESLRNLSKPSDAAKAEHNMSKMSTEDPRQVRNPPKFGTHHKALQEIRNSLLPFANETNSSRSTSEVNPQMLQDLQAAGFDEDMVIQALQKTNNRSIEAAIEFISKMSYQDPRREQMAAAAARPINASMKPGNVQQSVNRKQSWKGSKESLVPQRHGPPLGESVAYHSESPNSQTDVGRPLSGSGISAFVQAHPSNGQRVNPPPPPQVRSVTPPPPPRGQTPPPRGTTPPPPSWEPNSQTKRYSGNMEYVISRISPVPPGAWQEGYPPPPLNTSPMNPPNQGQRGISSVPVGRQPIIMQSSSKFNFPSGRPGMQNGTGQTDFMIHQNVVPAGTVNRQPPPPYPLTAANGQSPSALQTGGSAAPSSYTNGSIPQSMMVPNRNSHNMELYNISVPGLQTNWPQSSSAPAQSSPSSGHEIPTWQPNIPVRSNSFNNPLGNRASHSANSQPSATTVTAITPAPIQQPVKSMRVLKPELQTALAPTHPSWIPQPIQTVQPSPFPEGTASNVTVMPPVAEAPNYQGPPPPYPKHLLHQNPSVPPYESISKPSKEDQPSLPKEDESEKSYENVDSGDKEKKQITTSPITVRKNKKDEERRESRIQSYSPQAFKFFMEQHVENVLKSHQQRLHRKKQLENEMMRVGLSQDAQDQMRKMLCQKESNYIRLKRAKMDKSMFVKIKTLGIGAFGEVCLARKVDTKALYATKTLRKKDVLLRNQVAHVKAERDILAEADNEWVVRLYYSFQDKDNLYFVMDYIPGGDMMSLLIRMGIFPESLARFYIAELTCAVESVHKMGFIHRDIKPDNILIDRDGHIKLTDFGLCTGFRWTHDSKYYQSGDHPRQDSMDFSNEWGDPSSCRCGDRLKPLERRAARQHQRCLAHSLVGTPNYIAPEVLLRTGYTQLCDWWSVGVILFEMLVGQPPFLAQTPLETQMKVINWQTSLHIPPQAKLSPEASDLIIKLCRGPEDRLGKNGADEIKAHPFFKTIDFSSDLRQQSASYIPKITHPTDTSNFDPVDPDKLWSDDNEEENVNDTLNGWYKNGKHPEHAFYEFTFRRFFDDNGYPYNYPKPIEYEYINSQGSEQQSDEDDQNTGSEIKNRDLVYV

[3] = biological target: protein kinases (human kinome) (Homo sapiens, UniProt P51451)
protein kinases (human kinome) (Homo sapiens, UniProt P51451), sequence (P51451 whole entry): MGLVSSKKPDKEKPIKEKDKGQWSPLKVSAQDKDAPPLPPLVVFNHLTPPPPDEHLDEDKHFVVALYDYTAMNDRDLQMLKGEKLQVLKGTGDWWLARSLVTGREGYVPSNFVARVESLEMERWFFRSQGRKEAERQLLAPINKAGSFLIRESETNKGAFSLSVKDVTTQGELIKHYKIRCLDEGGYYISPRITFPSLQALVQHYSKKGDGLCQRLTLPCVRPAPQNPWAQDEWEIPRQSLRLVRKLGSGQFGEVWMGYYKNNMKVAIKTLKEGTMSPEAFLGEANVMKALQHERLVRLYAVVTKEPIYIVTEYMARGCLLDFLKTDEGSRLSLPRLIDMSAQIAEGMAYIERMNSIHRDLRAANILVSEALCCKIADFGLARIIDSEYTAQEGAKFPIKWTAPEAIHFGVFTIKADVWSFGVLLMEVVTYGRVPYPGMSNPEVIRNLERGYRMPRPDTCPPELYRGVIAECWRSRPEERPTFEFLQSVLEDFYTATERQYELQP

[4] = biological target: protein kinases (human kinome) (Homo sapiens, UniProt P41240); conditions: experiment wp071
protein kinases (human kinome) (Homo sapiens, UniProt P41240), sequence (P41240 whole entry): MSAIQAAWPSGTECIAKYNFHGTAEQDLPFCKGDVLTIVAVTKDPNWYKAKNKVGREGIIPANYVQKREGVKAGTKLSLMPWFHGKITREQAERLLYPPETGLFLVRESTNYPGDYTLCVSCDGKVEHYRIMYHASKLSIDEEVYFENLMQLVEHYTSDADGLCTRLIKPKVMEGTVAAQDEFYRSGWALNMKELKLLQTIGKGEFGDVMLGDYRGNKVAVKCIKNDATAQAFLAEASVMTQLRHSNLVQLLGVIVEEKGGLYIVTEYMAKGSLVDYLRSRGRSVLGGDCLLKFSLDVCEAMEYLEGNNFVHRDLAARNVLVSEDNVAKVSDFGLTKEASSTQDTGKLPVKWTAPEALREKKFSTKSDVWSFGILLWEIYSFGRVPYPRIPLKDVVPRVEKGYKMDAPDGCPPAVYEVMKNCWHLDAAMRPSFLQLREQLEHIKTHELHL

[5] = biological target: protein kinases (human kinome) (Homo sapiens, UniProt P42684)
[6] = biological target: protein kinases (human kinome) (Homo sapiens, UniProt P49674); conditions: CSNK1E P49674; experiment wp071
[7] = biological target: protein kinases (human kinome) (Homo sapiens, UniProt P53667); conditions: LIMK1 (P53667-1)
protein kinases (human kinome) (Homo sapiens, UniProt P53667), sequence (P53667 whole entry): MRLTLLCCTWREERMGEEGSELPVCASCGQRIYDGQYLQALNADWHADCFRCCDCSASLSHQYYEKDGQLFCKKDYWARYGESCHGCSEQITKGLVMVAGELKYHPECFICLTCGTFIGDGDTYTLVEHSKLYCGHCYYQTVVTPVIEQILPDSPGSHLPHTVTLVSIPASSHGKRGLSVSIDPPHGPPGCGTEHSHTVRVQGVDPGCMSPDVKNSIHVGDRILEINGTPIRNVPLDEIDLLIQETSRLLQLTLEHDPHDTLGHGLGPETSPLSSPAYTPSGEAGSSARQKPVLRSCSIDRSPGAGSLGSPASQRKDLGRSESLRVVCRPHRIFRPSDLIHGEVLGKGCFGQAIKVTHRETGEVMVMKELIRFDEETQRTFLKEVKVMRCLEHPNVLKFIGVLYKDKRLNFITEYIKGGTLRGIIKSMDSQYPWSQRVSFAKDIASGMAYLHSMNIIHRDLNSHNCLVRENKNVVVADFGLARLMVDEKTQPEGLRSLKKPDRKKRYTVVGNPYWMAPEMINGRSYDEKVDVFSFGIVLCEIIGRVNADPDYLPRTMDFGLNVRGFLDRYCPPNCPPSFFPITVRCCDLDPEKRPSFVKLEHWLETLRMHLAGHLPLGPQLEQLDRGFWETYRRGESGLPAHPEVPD

[8] = biological target: T2, protein kinases (human kinome) (Homo sapiens, UniProt Q13163); conditions: experiment wp071
T2 sequence (Q13163 1-448): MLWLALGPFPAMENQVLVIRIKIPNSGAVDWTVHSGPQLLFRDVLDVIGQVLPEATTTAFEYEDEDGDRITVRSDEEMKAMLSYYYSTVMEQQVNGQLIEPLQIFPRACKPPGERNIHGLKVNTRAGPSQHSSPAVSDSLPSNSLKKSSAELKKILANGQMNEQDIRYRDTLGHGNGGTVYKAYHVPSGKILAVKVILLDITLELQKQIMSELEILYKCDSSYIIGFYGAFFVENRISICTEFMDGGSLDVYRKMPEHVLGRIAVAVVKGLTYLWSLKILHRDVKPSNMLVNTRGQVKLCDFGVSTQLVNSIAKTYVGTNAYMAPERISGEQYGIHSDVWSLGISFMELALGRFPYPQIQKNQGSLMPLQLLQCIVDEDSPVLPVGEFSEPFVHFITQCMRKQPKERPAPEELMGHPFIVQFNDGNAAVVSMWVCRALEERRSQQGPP

[9] = biological target: protein kinases (human kinome) (Homo sapiens, UniProt Q16539)
protein kinases (human kinome) (Homo sapiens, UniProt Q16539), sequence (Q16539 whole entry): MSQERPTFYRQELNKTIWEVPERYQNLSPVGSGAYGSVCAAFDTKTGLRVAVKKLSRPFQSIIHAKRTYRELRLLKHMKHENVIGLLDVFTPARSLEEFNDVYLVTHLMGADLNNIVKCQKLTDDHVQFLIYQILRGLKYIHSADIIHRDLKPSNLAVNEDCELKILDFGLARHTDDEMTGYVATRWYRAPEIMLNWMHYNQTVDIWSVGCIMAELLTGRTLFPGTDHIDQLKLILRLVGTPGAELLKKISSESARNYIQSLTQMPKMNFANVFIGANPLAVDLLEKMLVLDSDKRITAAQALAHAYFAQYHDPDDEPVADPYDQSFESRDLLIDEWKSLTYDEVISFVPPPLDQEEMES

[10] = biological target: protein kinases (human kinome) (Homo sapiens, UniProt O60307); conditions: experiment wp081
[11] = biological target: protein kinases (human kinome) (Homo sapiens, UniProt P11802)
protein kinases (human kinome) (Homo sapiens, UniProt P11802), sequence (P11802 whole entry): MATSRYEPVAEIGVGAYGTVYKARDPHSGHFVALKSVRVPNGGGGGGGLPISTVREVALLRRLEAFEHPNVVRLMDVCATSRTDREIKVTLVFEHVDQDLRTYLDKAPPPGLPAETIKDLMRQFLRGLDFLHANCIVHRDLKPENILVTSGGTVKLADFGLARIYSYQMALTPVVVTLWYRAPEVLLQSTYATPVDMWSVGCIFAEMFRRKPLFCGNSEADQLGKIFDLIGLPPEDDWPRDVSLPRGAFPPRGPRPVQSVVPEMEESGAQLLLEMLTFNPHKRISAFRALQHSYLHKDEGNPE

[12] = biological target: protein kinases (human kinome) (Homo sapiens, UniProt P06493); conditions: CDK1 P06493
protein kinases (human kinome) (Homo sapiens, UniProt P06493), sequence (P06493 whole entry): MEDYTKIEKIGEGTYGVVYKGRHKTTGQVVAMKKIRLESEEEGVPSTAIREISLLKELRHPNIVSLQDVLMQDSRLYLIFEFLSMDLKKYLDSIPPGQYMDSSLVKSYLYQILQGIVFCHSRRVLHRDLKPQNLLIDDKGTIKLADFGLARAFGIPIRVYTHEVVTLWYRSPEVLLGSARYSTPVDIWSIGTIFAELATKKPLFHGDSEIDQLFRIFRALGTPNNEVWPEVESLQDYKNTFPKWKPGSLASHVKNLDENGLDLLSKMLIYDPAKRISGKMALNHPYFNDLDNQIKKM

[13] = biological target: protein kinases (human kinome) (Homo sapiens, UniProt Q00535); conditions: for logFC of CDK5: Accession Q00535; for logFC CDK5 (Q00535): direction of change down
protein kinases (human kinome) (Homo sapiens, UniProt Q00535), sequence (Q00535 whole entry): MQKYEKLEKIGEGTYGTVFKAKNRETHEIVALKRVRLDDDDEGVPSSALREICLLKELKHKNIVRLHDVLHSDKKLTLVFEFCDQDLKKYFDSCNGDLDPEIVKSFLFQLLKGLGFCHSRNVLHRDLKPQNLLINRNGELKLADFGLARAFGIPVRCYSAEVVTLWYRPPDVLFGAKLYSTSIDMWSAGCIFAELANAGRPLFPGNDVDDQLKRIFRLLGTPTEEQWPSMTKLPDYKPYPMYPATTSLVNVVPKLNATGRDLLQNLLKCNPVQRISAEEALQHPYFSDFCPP

[14] = biological target: protein kinases (human kinome) (Homo sapiens, UniProt Q00534); conditions: for logFC CDK6: CDK6 (Q00534), direction down; for logFC of CDK6 (Q00534): down
protein kinases (human kinome) (Homo sapiens, UniProt Q00534), sequence (Q00534 whole entry): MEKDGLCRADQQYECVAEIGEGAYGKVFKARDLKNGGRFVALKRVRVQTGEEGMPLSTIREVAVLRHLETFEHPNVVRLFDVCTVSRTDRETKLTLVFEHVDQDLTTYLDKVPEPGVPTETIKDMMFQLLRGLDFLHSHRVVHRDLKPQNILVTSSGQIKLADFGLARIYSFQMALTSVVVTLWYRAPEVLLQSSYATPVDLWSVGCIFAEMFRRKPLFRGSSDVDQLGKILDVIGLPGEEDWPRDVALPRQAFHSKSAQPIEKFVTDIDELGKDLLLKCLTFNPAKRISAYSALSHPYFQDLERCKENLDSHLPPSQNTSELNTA

[15] = biological target: protein kinases (human kinome) (Homo sapiens, UniProt P24941)
[16] = biological target: protein kinases (human kinome) (Homo sapiens, UniProt P53779); conditions: for logFC MAPK10 (P53779): direction of change down; for logFC: MAPK10 (P53779), experiment wp104
protein kinases (human kinome) (Homo sapiens, UniProt P53779), sequence (P53779 whole entry): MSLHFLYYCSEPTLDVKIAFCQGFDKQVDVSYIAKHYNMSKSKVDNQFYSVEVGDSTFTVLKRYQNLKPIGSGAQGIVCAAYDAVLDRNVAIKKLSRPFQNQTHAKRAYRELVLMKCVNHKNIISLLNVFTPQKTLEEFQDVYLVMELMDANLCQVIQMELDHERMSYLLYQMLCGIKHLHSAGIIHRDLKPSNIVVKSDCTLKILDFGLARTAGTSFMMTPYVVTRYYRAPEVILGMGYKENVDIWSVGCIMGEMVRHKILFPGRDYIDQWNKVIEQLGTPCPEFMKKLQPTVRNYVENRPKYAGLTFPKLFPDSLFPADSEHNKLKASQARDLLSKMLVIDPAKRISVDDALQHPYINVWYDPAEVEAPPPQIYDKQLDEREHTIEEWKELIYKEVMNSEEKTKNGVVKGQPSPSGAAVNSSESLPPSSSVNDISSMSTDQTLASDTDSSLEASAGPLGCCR

[17] = biological target: protein kinases (human kinome) (Homo sapiens, UniProt P45984); conditions: MAPK9 P45984-1, experiment wp104
protein kinases (human kinome) (Homo sapiens, UniProt P45984), sequence (P45984 whole entry): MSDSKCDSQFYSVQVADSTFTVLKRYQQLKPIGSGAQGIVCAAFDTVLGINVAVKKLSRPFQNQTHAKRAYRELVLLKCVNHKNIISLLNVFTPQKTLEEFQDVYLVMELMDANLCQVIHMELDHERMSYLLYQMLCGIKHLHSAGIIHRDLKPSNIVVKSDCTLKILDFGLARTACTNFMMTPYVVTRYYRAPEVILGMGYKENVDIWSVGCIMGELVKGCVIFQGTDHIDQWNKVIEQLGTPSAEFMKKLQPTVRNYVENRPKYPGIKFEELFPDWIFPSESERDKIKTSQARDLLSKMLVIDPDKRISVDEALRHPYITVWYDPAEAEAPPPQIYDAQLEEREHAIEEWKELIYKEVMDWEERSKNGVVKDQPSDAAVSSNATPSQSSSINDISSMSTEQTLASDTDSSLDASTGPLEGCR

[18] = biological target: protein kinases (human kinome) (Homo sapiens, UniProt Q00537); conditions: for logFC of CDK17: Accession Q00537; for logFC CDK17 (Q00537): direction of change down
protein kinases (human kinome) (Homo sapiens, UniProt Q00537), sequence (Q00537 whole entry): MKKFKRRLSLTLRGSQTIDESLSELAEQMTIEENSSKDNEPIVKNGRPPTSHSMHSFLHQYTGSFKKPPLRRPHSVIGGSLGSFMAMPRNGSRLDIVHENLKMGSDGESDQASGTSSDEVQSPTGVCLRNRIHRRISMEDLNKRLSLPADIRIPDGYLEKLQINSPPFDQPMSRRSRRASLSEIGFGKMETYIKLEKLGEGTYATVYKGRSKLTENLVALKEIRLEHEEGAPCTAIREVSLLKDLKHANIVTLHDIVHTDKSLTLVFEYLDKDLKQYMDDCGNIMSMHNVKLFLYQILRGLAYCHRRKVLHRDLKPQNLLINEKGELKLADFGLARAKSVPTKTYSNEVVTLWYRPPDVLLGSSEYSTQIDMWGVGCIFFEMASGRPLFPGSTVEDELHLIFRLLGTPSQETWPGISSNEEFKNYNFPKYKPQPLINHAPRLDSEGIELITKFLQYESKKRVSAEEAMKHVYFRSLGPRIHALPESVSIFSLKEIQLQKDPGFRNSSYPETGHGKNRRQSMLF

[19] = biological target: T3, protein kinases (human kinome) (Homo sapiens, UniProt O14965)
T3 sequence (O14965 1-403): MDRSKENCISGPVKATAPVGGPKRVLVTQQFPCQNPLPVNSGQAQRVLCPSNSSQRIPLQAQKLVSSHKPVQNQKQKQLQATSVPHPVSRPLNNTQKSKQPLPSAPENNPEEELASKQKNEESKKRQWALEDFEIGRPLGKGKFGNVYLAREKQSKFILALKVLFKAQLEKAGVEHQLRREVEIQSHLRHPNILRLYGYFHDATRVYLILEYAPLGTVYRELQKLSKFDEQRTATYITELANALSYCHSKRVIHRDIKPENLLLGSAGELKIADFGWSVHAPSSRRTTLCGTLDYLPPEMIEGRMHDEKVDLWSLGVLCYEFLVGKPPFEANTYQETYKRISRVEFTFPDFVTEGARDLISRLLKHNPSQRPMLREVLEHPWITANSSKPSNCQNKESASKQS

[20] = biological target: protein kinases (human kinome) (Homo sapiens, UniProt P50613); conditions: for logFC: CDK7 (P50613) protein abundance, degrader vs DMSO, down; for logFC CDK7: CDK7 P50613, experiment wp104
protein kinases (human kinome) (Homo sapiens, UniProt P50613), sequence (P50613 whole entry): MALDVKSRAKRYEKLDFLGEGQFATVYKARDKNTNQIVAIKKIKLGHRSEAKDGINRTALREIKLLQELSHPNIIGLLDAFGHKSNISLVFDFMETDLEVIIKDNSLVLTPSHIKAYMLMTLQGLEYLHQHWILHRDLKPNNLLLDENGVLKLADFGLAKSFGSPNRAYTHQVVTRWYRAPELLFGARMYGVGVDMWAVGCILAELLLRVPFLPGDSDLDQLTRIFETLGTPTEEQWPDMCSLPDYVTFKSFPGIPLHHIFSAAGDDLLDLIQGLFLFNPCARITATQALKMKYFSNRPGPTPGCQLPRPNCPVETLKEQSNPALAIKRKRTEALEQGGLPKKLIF

Nc1ncnc2c1c(-c1ccc(Oc3ccccc3)cc1)nn2[C@H]1CC[C@H](N2CCN(CCCCCCNC(=O)COc3cccc4c3C(=O)N(C3CCC(=O)NC3=O)C4=O)CC2)CC1 (some centres unmarked) [SB1.G.200]
logFC ABL1 ([1]; ABL1 (P00519-2), experiment wp071): −1.646 | logFC FYN ([1]; Accession P06241-2, experiment wp071): −1.777 | logFC of SRC ([1]; Accession P12931-2, experiment wp071): −2.174 | logFC FYN ([1]; FYN P06241-2, experiment wp071): −1.777 | logFC LCK ([1]; LCK, accession P06239-3, experiment wp071, direction of change down): −1.275 | logFC ([1]; SRC (P12931-2) protein abundance, degrader vs DMSO, down): −2.174 | logFC ABL1 (P00519-2) ([1]; experiment wp071): −1.646 | logFC LCK (P06239-3) ([1]; experiment wp071, direction of change down): −1.275 | logFC [2]: −1.403 | logFC LATS1 [2]: −1.403 | logFC BLK ([3]; BLK (P51451), direction down, experiment wp071): −1.525 | logFC of BLK (P51451) ([3]; Experiment wp071, down): −1.525 | logFC of CSK ([4]; Accession P41240): −3.011 | logFC CSK ([4]; CSK (P41240), down): −3.011 | logFC ([5]; ABL2 (P42684) protein abundance, degrader vs DMSO, down): −2.103 | logFC ABL2 (P42684) ([5]; experiment wp071): −2.103 | logFC [6]: −0.76 | logFC CSNK1E [6]: −0.76 | logFC LIMK1 ([7]; direction down, experiment wp071): −0.775 | logFC LIMK1 ([7]; experiment wp071, down): −0.775 | logFC ([8]; MAP2K5 (Q13163-1)): −1.433 | logFC of MAP2K5 (Q13163-1) [8]: −1.433

CC(C)(C)c1cc(NC(=O)Nc2ccc(Oc3ccnc(C(=O)NCCOCCOCCNC(=O)CNc4cccc5c4C(=O)N(C4CCC(=O)NC4=O)C5=O)c3)cc2F)n(-c2ccc3ncccc3c2)n1 (centres unmarked) [TL13.178]
logFC MAP3K20 (Q9NYL2-2) ([1]; Experiment wp081): −1.407 | logFC MAPK14 ([1]; MAPK14, accession Q16539-2, experiment wp081, direction of change down): −0.3343 | logFC MAPK14 ([1]; MAPK14 Q16539-2, experiment wp081): −0.3343 | logFC MAP3K20 (Q9NYL2-2) ([1]; experiment wp081): −1.407 | logFC ([9]; MAPK14 (Q16539) protein abundance, degrader vs DMSO, down): −0.5659 | logFC MAPK14 ([9]; MAPK14, accession Q16539, experiment wp081, direction of change down): −0.5659 | logFC MAST3 (O60307) ([10]; direction of change down): −0.4852 | logFC MAST3 ([10]; protein MAST3 (O60307), down): −0.4852 | logFC LIMK1 ([7]; direction down, experiment wp081): −0.3359 | logFC LIMK1 ([7]; experiment wp081, down): −0.3359 | logFC CDK4 (P11802) ([11]; experiment wp081): −0.5762

NC(=O)c1c(F)cccc1Nc1nc(NC2CCN(S(=O)(=O)CCNC(=O)CCCCCCCCOc3cccc4c3C(=O)N(C3CCC(=O)NC3=O)C4=O)CC2)ncc1Br (centres unmarked) [TMX.01.160.1]
logFC MAPK8 (P45983-4) ([1]; Experiment wp104, _0.25): −0.3338 | logFC MAPK8 (P45983-4) ([1]; Experiment wp104, _1): −0.476 | logFC MAPK8 ([1]; experiment wp104, _0.25): −0.3338 | logFC MAPK8 ([1]; experiment wp104, _1): −0.476 | logFC CDK16 (Q00536-2) ([1]; experiment wp104, 0.25): −0.8646 | logFC CDK16 (Q00536-2) ([1]; experiment wp104, 1): −0.6009 | logFC CDK16 (Q00536-2) ([1]; experiment wp104, suffix _0.25): −0.8646 | logFC CDK16 (Q00536-2) ([1]; experiment wp104, suffix _1): −0.6009 | logFC ([12]; experiment wp104, 0.25): −0.7936 | logFC CDK1 ([12]; experiment wp104, 0.25): −0.7936 | logFC ([12]; experiment wp104, 1): −0.9413 | logFC CDK1 ([12]; experiment wp104, 1): −0.9413 | logFC of CDK5 ([13]; experiment wp104, suffix _0.25): −1.866 | logFC of CDK5 ([13]; experiment wp104, suffix _1): −1.827 | logFC CDK5 (Q00535) ([13]; experiment wp104, _0.25): −1.866 | logFC CDK5 (Q00535) ([13]; experiment wp104, _1): −1.827 | logFC CDK6 ([14]; experiment wp104, _0.25): −0.866 | logFC CDK6 ([14]; experiment wp104, _1): −0.8425 | logFC of CDK6 (Q00534) ([14]; Experiment wp104, _0.25): −0.866 | logFC of CDK6 (Q00534) ([14]; Experiment wp104, _1): −0.8425 | logFC CDK2 (P24941-1) ([15]; experiment wp104, _0.25): −1.024 | logFC CDK2 (P24941-1) ([15]; experiment wp104, _0.25, direction of change down): −1.024 | logFC CDK2 (P24941-1) ([15]; experiment wp104, _1): −0.9457 | logFC CDK2 (P24941-1) ([15]; experiment wp104, _1, direction of change down): −0.9457 | logFC MAPK10 (P53779) ([16]; Experiment wp104_TMX.01.160.1_0.25): −0.5743 | logFC MAPK10 (P53779) ([16]; Experiment wp104_TMX.01.160.1_1): −0.5743 | logFC ([16]; suffix _0.25): −0.5743 | logFC ([16]; suffix _1): −0.5743 | logFC ([17]; _0.25): −1.635 | logFC MAPK9 ([17]; _0.25): −1.635 | logFC ([17]; _1): −1.496 | logFC MAPK9 ([17]; _1): −1.496 | logFC of CDK17 ([18]; experiment wp104, suffix _0.25): −0.7788 | logFC of CDK17 ([18]; experiment wp104, suffix _1): −0.6817 | logFC CDK17 (Q00537) ([18]; experiment wp104, _0.25): −0.7788 | logFC CDK17 (Q00537) ([18]; experiment wp104, _1): −0.6817 | logFC AURKA (O14965) ([19]; experiment wp104, _0.25): −1.326 | logFC AURKA (O14965) ([19]; experiment wp104, _1): −1.466 | logFC ([20]; experiment suffix _0.25): −0.4941 | logFC ([20]; experiment suffix _1): −0.5204 | logFC CDK7 ([20]; _0.25): −0.4941 | logFC CDK7 ([20]; _1): −0.5204 | logFC CDK4 (P11802) ([11]; experiment wp104, _0.25): −0.5542 | logFC CDK4 (P11802) ([11]; experiment wp104, _1): −0.7676
